{
  "source": "patent US20070250942A1",
  "about": "“Non-human transgenic mammals useful for identifying and assessing neural stem/progenitor cells” (Cold Spring Harbor Laboratory, priority 2006, published 2007)",
  "key": {"adult dentate gyrus": {"system": "adult dentate gyrus", "assay": "Fluoxetine effect on neuronal precursor classes in the adult dentate gyrus of nestin-CFPnuc mice (confocal stereology, BrdU labeling)", "assay_type": "in vivo, mouse", "procedure": "(§1) Immunohistochemistry. Tissues were fixed by transcardial perfusion with 30 ml of 4% (w/v) paraformaldehyde in PBS, pH 7.4. The brains were removed, cut longitudinally into two hemispheres and postfixed for 3 hrs at room temperature, then transferred to PBS and kept at 4° C. Serial sagittal sections, 50-μm thick, were cut with a Vibratome 1500 (Vibratome, St. Louis, Mo.). Immunostaining was carried following the standard procedure. The sections were incubated with primary antibodies to the target protein (see the list below) at 4° C. in PBS containing 0.2% Triton-100X and 3% BSA. After thorough washing with PBS, appropriate secondary antibodies (see the list below) were incubated in the same solution for 1 hr at room temperature. After washing with PBS, the sections were mounted on gelatine coated slides with DakoCytomation Fluorescent Mounting Medium (DakoCytomation, Carpinteria, Calif.). For the analysis of 5-bromo-2-deoxyuridine (BrdU) incorporation, sections were treated with 2M HCl for 30 min at 55° C., washed with PBS, treated with 1 mM sodium tetraborate for 10 min at room temperature, and finally washed with PBS. The following antibodies were used: chicken anti-GFP (Aves Laboratories, Tigard, Oreg.) 1:500; guinea pig anti-GFAP (Advanced Immunochemicals, Long Beach, Calif.) 1:500; mouse anti-nestin (Chemicon International, Temecula, Calif.) 1:100; mouse anti-NeuN (Chemicon) 1:800; rabbit anti Dcx (generous gift from Dr. C. A. Walsh, Harvard Medical School) 1:2500; rabbit anti-Prox I (generous gift from Dr. S. J. Pleasure, UCSF) 1:2000; rat anti-BrdU (Serotec, Raleigh, N.C.) 1:400; mouse anti-PSA-NCAM (Chemicon) 1:400; AlexaFluor 488 goat anti-chicken (Molecular Probes, Willow Creek Road, Eugene, Oreg.) 1:500; AlexaFluor 594 goat anti-mouse (Molecular Probes) 1:500; AlexaFluor 568 goat anti-rat (Molecular Probes) 1:500; Cy5 goat anti-guinea pig (Jackson Immunoresearch, West Grove, Pa.) 1:500; Cy5 goat anti-rabbit (Jackson Immunoresearch) 1:500; Texas Red donkey anti-chicken (Jackson Immunoresearch) 1:500.\n(§2) Quantification. Quantitative analysis of cell populations was performed by means of design-based (assumption free, unbiased) stereology. Slices were collected using systematic-random sampling. One brain hemisphere was randomly selected per animal. The hemisphere was sliced sagittaly, in a lateral-to-medial direction, from the beginning until the end of the lateral ventricle, thus including the whole DG. The 50 μm slices, obtained with a 1500 Vibratome (Vibratome, St. Louis, Mo.), were collected in 6 parallel sets (5 in the case of the juvenile mice), each set consisting of 12 slices, each slice 300 μm apart from the next.\n(§3) For counts in the DG, all the cells of each type described were counted in every slice, excluding those in the uppermost focal plane. The volume of the reference space (of the granule cell layer (GCL)+the subgranular zone (SGZ)) was calculated by the Cavalieri-point method. In the subventricular zone (SVZ), for BrdU counts, all the BrdU stained cells were counted in each slice, excluding those in the uppermost focal plane. For nestin-CFP cells, the two-stage approach was used. At least 10 optical disectors (20×20×20 μm), placed following a systematic-random manner, were applied on each slice. Then the volume of the space reference (of the SVZ) was estimated using the Cavalieri-point method.\n(§4) All the imaging and quantification procedures were performed using a Zeiss LSM 510 confocal microscope and its software. Statistical analysis and graphs of the numeric data were obtained using SigmaPlot software (SYSTAT, Port Richmond, Calif.) and JMP (SAS Institute Inc., Cary, N.C.).\n(§5) On the last day a single injection of BrdU, 150 mg/kg was also administered. […] On the last day they were also given a single injection of BrdU, 150 mg/kg. In both sets of experiments, animals were sacrificed either 24 h or 30 days after the end of the treatment and the BrdU injection."}, "[1]": {"system": "subventricular zone (SVZ)", "assay": "Fluoxetine effect on neurogenesis in the subventricular zone of adult nestin-CFPnuc mice", "assay_type": "in vivo, mouse", "conditions": "15 days treatment", "procedure": "as §1, §2, §3\nAll the imaging and quantification procedures were performed using a Zeiss LSM 510 confocal microscope and its software. […]"}, "juvenile dentate gyrus": {"system": "juvenile dentate gyrus", "assay": "Fluoxetine effect on neuronal precursor classes in the juvenile dentate gyrus of nestin-CFPnuc mice", "assay_type": "in vivo, mouse", "procedure": "as §1, §2\nIn the young animals, all the BrdU cells were counted in each slice, excluding those in the uppermost focal plane. The number of nestin-CFPnuc stained cells, the QNPs, and the ANPs, was estimated using the two-stage approach. At least 5 optical dissectors (20×20×20 μm) placed in a systematic-random manner, were applied to each slice. Then the volume of the space reference (of the SGZ) was estimated using the Cavalieri-point method.\nas §4, §5\nThe action of fluoxetine on stem/progenitor cells was investigated for similarity in both the juvenile and adult brain. […] In the DG of treated juvenile mice, precursor cells can be divided into the same categories as the cells in the adult brain (note that the animals are 20 or 49 days old at the time of analysis). […]"}, "[2]": {"system": "dentate gyrus (DG) of the adult brain", "conditions": "cited from earlier work"}, "[3]": {"conditions": "exposure of newborn (p4) mice; cited from earlier work"}, "[4]": {"conditions": "adult, 15 days treatment, 24 h, mean±SEM, n=8"}, "[5]": {"conditions": "adult, 15 days treatment, 24 h, n=6"}, "[6]": {"conditions": "adult, 15 days treatment, 24 h, vs vehicle"}, "[7]": {"conditions": "adult, 15 days treatment, 1 day after BrdU, n=8"}, "[8]": {"conditions": "adult, 15 days treatment, sacrificed 30 days later, n=6"}, "[9]": {"conditions": "15 days from p5, 1 day, vs vehicle"}, "[10]": {"conditions": "30 days after end of administration, n=5"}},
  "note": "Structures can show the parent of a compound that is named as a salt.",
  "data": [
    {"smiles": "CNCCC(Oc1ccc(C(F)(F)F)cc1)c1ccccc1", "note": "(stereo not shown) [fluoxetine, fluoxetine hydrochloride]", "values": [
      {"measurement": "increase in number of BrdU-labeled cells in the DG", "setting": "adult dentate gyrus; 7-month old mice, 10 mg/kg once per day for 15 days, 24 h after BrdU, vs vehicle", "result": 40.9, "unit": "%"},
      {"measurement": "number of BrdU-labeled cells in the DG", "setting": "adult dentate gyrus; adult, 10 mg/kg/day 15 days, 24 h after BrdU, mean±SEM, n=8", "result": "758±58"},
      {"measurement": "change in Dcx-positive cells (compared with PSA-NCAM-positive cells)", "setting": "adult dentate gyrus; adult, 15 days treatment, 24 h", "result": "Identical changes"},
      {"measurement": "number of ANP cells", "setting": "adult dentate gyrus; [4]", "result": "5745±506"},
      {"measurement": "number of QNP cells", "setting": "adult dentate gyrus; [4]", "result": "4675±518"},
      {"measurement": "number of BrdU-labeled ANPs", "setting": "adult dentate gyrus; [5]", "result": "410±33"},
      {"measurement": "number of BrdU-labeled QNPs", "setting": "adult dentate gyrus; [5]", "result": "90±16"},
      {"measurement": "number of PSA-NCAM-positive cells (NB1, NB2 and IN)", "setting": "adult dentate gyrus; adult, 15 days treatment, 24 h, n=8", "result": "11298±719"},
      {"measurement": "change in number of BrdU-labeled QNPs", "setting": "adult dentate gyrus; [6]", "result": "not affected"},
      {"measurement": "change in number of QNP cells", "setting": "adult dentate gyrus; [6]", "result": "no change"},
      {"measurement": "fraction of dividing cells among ANPs", "setting": "adult dentate gyrus; [6]", "result": "did not change"},
      {"measurement": "fraction of dividing cells among QNPs", "setting": "adult dentate gyrus; [6]", "result": "did not change"},
      {"measurement": "increase in number of ANP cells", "setting": "adult dentate gyrus; [6]", "result": 49.6, "unit": "%"},
      {"measurement": "increase in number of BrdU-labeled ANPs", "setting": "adult dentate gyrus; [6]", "result": 46.4, "unit": "%"},
      {"measurement": "increase in number of CFPnuc-positive cells (QNPs and ANPs together)", "setting": "adult dentate gyrus; [6]", "result": 24.7, "unit": "%"},
      {"measurement": "increase in number of PSA-NCAM-positive cells (NB1, NB2 and IN)", "setting": "adult dentate gyrus; [6]", "result": "26.5±7.2", "unit": "%"},
      {"measurement": "number of IN cells", "setting": "adult dentate gyrus; [7]", "result": "858±88"},
      {"measurement": "number of NB1 cells", "setting": "adult dentate gyrus; [7]", "result": "6988±538"},
      {"measurement": "number of NB2 cells", "setting": "adult dentate gyrus; [7]", "result": "3452±413"},
      {"measurement": "increase in number of NB1 cells", "setting": "adult dentate gyrus; adult, 15 days treatment, 1 day after BrdU, vs vehicle", "result": 42.1, "unit": "%"},
      {"measurement": "fraction of BrdU+NeuN+ cells among total BrdU-positive cells", "setting": "adult dentate gyrus; adult, 15 days treatment, sacrificed 30 days later", "result": "92.8±1.6", "unit": "%"},
      {"measurement": "number of BrdU-labeled NeuN-positive neurons", "setting": "adult dentate gyrus; [8]", "result": "316±29"},
      {"measurement": "number of BrdU-labeled cells in the DG", "setting": "adult dentate gyrus; [8]", "result": "342±24"},
      {"measurement": "increase in number of BrdU-labeled cells in the DG", "setting": "adult dentate gyrus; adult, 15 days treatment, sacrificed 30 days later, vs vehicle", "result": 46.2, "unit": "%"},
      {"measurement": "number of BrdU-labeled cells in the SVZ", "setting": "[1]", "result": "9550±769"},
      {"measurement": "number of nestin-CFPnuc cells in the SVZ", "setting": "[1]", "result": "473±55 ×10^3"},
      {"measurement": "volume of the SVZ", "setting": "[1]; in mm³", "result": "0.603±0.051"},
      {"measurement": "change in number of BrdU-labeled cells in the SVZ", "setting": "[1]; vs vehicle", "result": "No changes"},
      {"measurement": "change in number of nestin-CFPnuc cells, their density and volume of the SVZ", "setting": "[1]; vs vehicle", "result": "no significant changes"},
      {"measurement": "number of ANPs", "setting": "juvenile dentate gyrus; 15 days from p5, 1 day", "result": "16972±1872"},
      {"measurement": "number of QNPs", "setting": "juvenile dentate gyrus; 15 days from p5, 1 day", "result": "42048±4328"},
      {"measurement": "number of dividing (BrdU-labeled) ANP cells", "setting": "juvenile dentate gyrus; 15 days from p5, 1 day", "result": "1698±184"},
      {"measurement": "number of dividing (BrdU-labeled) QNP cells", "setting": "juvenile dentate gyrus; 15 days from p5, 1 day", "result": "2021±434"},
      {"measurement": "number of nestin-CFPnuc cells", "setting": "juvenile dentate gyrus; 15 days from p5, 1 day", "result": "61256±4970"},
      {"measurement": "number of BrdU-positive cells in the DG", "setting": "juvenile dentate gyrus; 15 days from p5, 1 day after BrdU", "result": "9796±834"},
      {"measurement": "change in number of dividing (BrdU-labeled) QNP cells (not statistically significant)", "setting": "juvenile dentate gyrus; [9]", "result": 28.7, "unit": "%"},
      {"measurement": "fraction of BrdU+NeuN+ cells among total BrdU-positive cells (FIG. 7K BrdU-labeled QNP, FIG. 7L BrdU-labeled ANP)", "setting": "juvenile dentate gyrus; [9]", "result": "did not change"},
      {"measurement": "increase in number of ANPs", "setting": "juvenile dentate gyrus; [9]", "result": 52.6, "unit": "%"},
      {"measurement": "increase in number of dividing (BrdU-labeled) ANP cells", "setting": "juvenile dentate gyrus; [9]", "result": 67.7, "unit": "%"},
      {"measurement": "increase in number of nestin-CFPnuc cells", "setting": "juvenile dentate gyrus; [9]", "result": 35.6, "unit": "%"},
      {"measurement": "change in number of QNPs (did not reach statistical significance)", "setting": "juvenile dentate gyrus; 15 days from p5, 1 day, vs vehicle, p=0.134", "result": 23.5, "unit": "%"},
      {"measurement": "increase in number of BrdU-positive cells in the DG", "setting": "juvenile dentate gyrus; 15 days from p5, 30 days after end of administration, vs vehicle", "result": 42.2, "unit": "%"},
      {"measurement": "increase in number of BrdU-positive cells in the DG", "setting": "juvenile dentate gyrus; 15 days treatment from p5, 1 day after BrdU, vs vehicle", "result": 36.3, "unit": "%"},
      {"measurement": "fraction of BrdU- and NeuN-double-positive cells among total BrdU-positive cells", "setting": "juvenile dentate gyrus; 30 days after end of administration", "result": 93.6, "unit": "%"},
      {"measurement": "number of BrdU- and NeuN-double-positive cells", "setting": "juvenile dentate gyrus; [10]", "result": "1892±119"},
      {"measurement": "number of BrdU-positive cells in the DG", "setting": "juvenile dentate gyrus; [10]", "result": "2026±153"},
      {"measurement": "increase in number of BrdU- and NeuN-double-positive cells", "setting": "juvenile dentate gyrus; 30 days after end of administration, vs vehicle", "result": 42.3, "unit": "%"},
      {"measurement": "generation of new neurons in the dentate gyrus", "setting": "[2]", "result": "increases generation of new neurons"},
      {"measurement": "anxiety when animals become adults", "setting": "[3]", "result": "elevated anxiety"}
    ]}
  ]
}
